The source of these data is US20250042942A1, “PEPTIDE HAVING PHYSIOLOGICAL ACTIVITIES AND USE THEREOF” (CAREGEN CO., LTD., priority 2021, published 2025).

The series has as its system mouse RAW264.7 cell line. Kind of series: Cytotoxicity, CCK-8 assay. Particulars: peptide 10, 30, 30, 100, and 150 μg/ml, 3 days, CCK-8, FIG. 10B. The series is classed as cell-based. As to the method:
The effect of the peptide of the present invention on cell proliferation was confirmed using CCK-8 assay. CCK-8 reagent is reduced by cellular dehydrogenase to produce a colored product, and the proliferation of cells may be confirmed through a difference in absorbance using this.
After removing the medium, CCK-8 solution (Dojindo, CCK-8 kit) was diluted 10 times in the culture medium and treated at 100 μl each. During incubation at 37° C., absorbance at a wavelength of 450 nm was measured using a microplate reader at 30-minute intervals.
(Formazan colour is commonly taken as a measure of viable cells.)

Each structure is given as a SMILES string. Peptide text beside a SMILES is read from it.

Take `CC[C@H](C)[C@H](NC(=O)[C@H](C)NC(=O)[C@@H](N)CC(N)=O)C(=O)N[C@@H](CO)C(=O)N[C@H](C(=O)N[C@@H](CC(C)C)C(=O)N[C@@H](Cc1ccc(O)cc1)C(=O)N[C@@H](Cc1ccccc1)C(=O)N[C@@H](CC(=O)O)C(=O)N[C@@H](CC(=O)O)C(=O)N[C@@H](CO)C(=O)O)C(C)C` [SEQ ID NO: 1, NAISVLYFDDS] (H-NAISVLYFDDS-OH): the “toxicity to mouse macrophages” value was “not toxic”.
